These results are taken from US8231887B2, “Pesticidal compositions” (BASF Corporation, priority 2008, dated 2012).

“And” between values parts separate entries of the source, which are not always exact repeats. Equal values may be shown once.

One assay relates to cockroaches (all male). In words: Topical toxicity test of mineral oil and/or hexylene glycol, isopropyl myristate, dioxane or d-limonene in acetone (Examples 3-6). It counts as in vivo, Blattella germanica. The note with it: 24 hours; for # dead: 1 μl topical, remainder acetone. As to the method: Toxicity evaluations were performed on 7-14 day old adult male and female German cockroaches (SCJ Strain, S.C. Johnson & Son, Racine, Wis.). Approximately 12 cockroaches were transferred to individual 100×20 mm polystyrene Petri dishes and anesthetized with a 15-25 second exposure to carbon dioxide. The inside edge of each Petri dish was lightly coated with mineral oil plus petroleum jelly in a 1:3 (wt/wt) ratio to minimize escape. Anesthetized cockroaches were positioned with their ventral side up, and a 1 μl drop of the diluted test composition was applied to the area between the meso- and metathoracic legs using a Rainin L-10, 10 μl capacity pipette (Rainin Instrument, LLC, Oakland, Calif.). Five replications of 12 male cockroaches were done for each test composition. Separate tests were done using female cockroaches. Results were evaluated at 24 hours following treatment. Cockroaches were scored as either alive (dorsal side up, active movement when abdomen prodded with dissecting probe) or moribund/dead (dorsal side up and no movement when abdomen prodded or ventral side up and insect unable to right itself). […]
Tests were generally performed as described in Example 1, except the number of cockroaches (all male) tested for each composition is set forth below in Table 6, and the compositions were not further diluted with acetone in a 1:1 (wt/wt) ratio prior to testing. The results are shown in Table 6, which lists the number of cockroaches tested for each composition, the number of dead cockroaches out of the total number of cockroaches tested, the square root percent dead cockroaches, the proportion of dead cockroaches, and the arcsine square root percent dead cockroaches.
Tests were generally performed as described in Example 1, except the number of cockroaches (all male) tested for each composition is set forth below in Table 7, and the compositions were not further diluted with acetone in a 1:1 (wt/wt) ratio prior to testing. The results are shown in Table 7, which lists the number of cockroaches tested for each composition, the number of dead cockroaches out of the total number of cockroaches tested, the square root percent dead cockroaches, the proportion of dead cockroaches, and the arcsine square root percent dead cockroaches.

Assay [1] concerns cockroaches. In words: Topical toxicity test of alcohols and/or PD23 mineral oil, dead at 24 h (Example 10). It counts as in vivo, Blattella germanica. The protocol: Toxicity evaluations were performed on 7-14 day old adult male and female German cockroaches (SCJ Strain, S.C. Johnson & Son, Racine, Wis.). Approximately 12 cockroaches were transferred to individual 100×20 mm polystyrene Petri dishes and anesthetized with a 15-25 second exposure to carbon dioxide. The inside edge of each Petri dish was lightly coated with mineral oil plus petroleum jelly in a 1:3 (wt/wt) ratio to minimize escape. Anesthetized cockroaches were positioned with their ventral side up, and a 1 μl drop of the diluted test composition was applied to the area between the meso- and metathoracic legs using a Rainin L-10, 10 μl capacity pipette (Rainin Instrument, LLC, Oakland, Calif.). Five replications of 12 male cockroaches were done for each test composition. Separate tests were done using female cockroaches. Results were evaluated at 24 hours following treatment. Cockroaches were scored as either alive (dorsal side up, active movement when abdomen prodded with dissecting probe) or moribund/dead (dorsal side up and no movement when abdomen prodded or ventral side up and insect unable to right itself).
The compositions comprising alcohol and/or mineral oil are described in Table 13.

Assay [2] concerns cockroaches. Description: 1-propanol and 1-heptanol alone and in combination with Exxsol D95 mineral oil (Example 17). It counts as in vivo. The following applies: for # dead at 24 h / Proportion dead at 24 h: individual treatment; for synergy with EXXSOL D95: result in words.
In assay [3] the test system is cockroaches. Description: LD50 and LD10 of mineral oils and alcohols, dose-response mortality, probit analysis (Example 9). It counts as in vivo, Blattella germanica. The note with it: 95% CI printed in the line below. The protocol:
In this example, various mineral oils and alcohols were tested to determine, for cockroaches, the LD50 and LD10 for each.
PD23 and PD28 mineral oils were obtained from Sonneborn LLC, Mahwah, N.J. The physical properties of these oils are shown in Table 11. Each mineral oil was tested to determine the LD50 and LD10 (Table 12).
The tested alcohols were obtained from Sigma-Aldrich Corp., St. Louis, Mo. Each alcohol was tested to determine the LD50 and LD10 (Table 12).

Setting [4] is: Table 14, composite data of the replicates.
The mark [5] stands for this setting: Table 14, composite data, calculated proportion.

For the molecule `C1COCCO1` [Dioxane (50%), Dioxane], in the assay with cockroaches (all male) (Table 6, per replicate), the “# dead” value is 0 (4×) and 1; the “Arcsine square root % dead” value amounted to 0; the Proportion dead is 0; the “Square root % dead” value was found to be 0.

With `CCCCCCCO` [Composition 1-heptanol, 1-heptanol], the “# dead at 24 h” value with cockroaches [1] (setting [4]) and in the assay with cockroaches [2] (0.40 mg) was 1 each time. For the same molecule, the “Proportion dead at 24 h” value in the assay with cockroaches [1] (setting [5]) and in the assay with cockroaches [2] (0.40 mg) was 0.028 in each case. In addition, in the assay on cockroaches [2], the “synergy with EXXSOL D95” value was “significant synergy”.

For the molecule 1-butanol [Composition 1-butanol], the “# dead at 24 h” value in the assay with cockroaches [1] (Table 13, per replicate of 10-16 treated cockroaches, mg per insect in the label, listed as 1-butanol (0.8 mg)) was 0 (2×) and 1; in the assay on cockroaches [1] (setting [4]), 1. Also, the “Proportion dead at 24 h” value in the assay with cockroaches [1] (Table 13, per replicate, listed as 1-butanol (0.8 mg)) is 0.000 (2×) and 0.100; in the assay on cockroaches [1] (setting [5]), 0.029. This molecule had an LD10 mg/insect with cockroaches [3] of 0.877 mg/insect. The LD50 mg/insect in the assay on cockroaches [3] came to 1.018 mg/insect.

Turning to `CO` [Methanol], the “# dead at 24 h” value in the assay with cockroaches [1] (Table 13, per replicate of 10-16 treated cockroaches, mg per insect in the label, listed as methanol (3.0 mg)) was 0 (2×) and 1; in the assay on cockroaches [1] (setting [4]), 1. For the same molecule, the “Proportion dead at 24 h” value with cockroaches [1] (Table 13, per replicate, listed as methanol (3.0 mg)) is 0.000 (2×) and 0.077; with cockroaches [1] (setting [5]) it was 0.026. The LD10 mg/insect entry in the assay on cockroaches [3] is listed as “Estimated at ~3.000 mg/insect”. Also, the LD50 mg/insect with cockroaches [3] is recorded as above 7.00 mg/insect.

In the case of 1-propanol [Composition 1-propanol], the “# dead at 24 h” value is 1 and 0 (2×) in the assay on cockroaches [1] (Table 13, per replicate of 10-16 treated cockroaches, mg per insect in the label, listed as 1-propanol (0.45 mg)); 1 in the assay with cockroaches [1] (setting [4]); 1 in the assay with cockroaches [2] (0.45 mg). Further, the “Proportion dead at 24 h” value in the assay with cockroaches [1] (Table 13, per replicate, listed as 1-propanol (0.45 mg)) was 0.083 and 0.000 (2×); in the assay with cockroaches [1] (setting [5]), 0.028; in the assay on cockroaches [2] (0.45 mg), 0.028. This molecule also showed an LD10 mg/insect with cockroaches [3] of 0.472 mg/insect. For the same molecule, the LD50 mg/insect in the assay on cockroaches [3] is 0.557 mg/insect. Moreover, the “synergy with EXXSOL D95” value with cockroaches [2] is “significant synergy”.

In the case of `C=C(C)[C@H]1CC=C(C)CC1` [d-limonene (40%), d-limonene], in the assay on cockroaches (all male) (Table 7, per replicate), the “# dead” value is 1 and 0 and 2 (2×); the “Arcsine square root % dead” value came out at 0; the Proportion dead was 0; the “Square root % dead” value turned out to be 0.

On to 2-butanol [Composition 2-butanol], for which the “# dead at 24 h” value with cockroaches [1] (Table 13, per replicate of 10-16 treated cockroaches, mg per insect in the label, listed as 2-butanol (0.8 mg)) was 0 (2×) and 1; in the assay with cockroaches [1] (setting [4]) it was 1. The “Proportion dead at 24 h” value with cockroaches [1] (Table 13, per replicate, listed as 2-butanol (0.8 mg)) was 0.000 (2×) and 0.083; in the assay with cockroaches [1] (setting [5]), 0.026. The LD10 mg/insect in the assay with cockroaches [3] stood at 0.881 mg/insect. Besides, the LD50 mg/insect in the assay with cockroaches [3] was found to be 1.188 mg/insect.

Regarding `OCCc1ccccc1` [2-phenylethanol], the “# dead at 24 h” value in the assay on cockroaches [1] (setting [4]) is reported as 5. Besides, the “Proportion dead at 24 h” value with cockroaches [1] (setting [5]) is reported as 0.106. In the assay on cockroaches [3], the LD10 mg/insect is listed as 0.075 mg/insect.

Take `CC(=O)CC(C)(C)O` [Diacetone alcohol]: the “# dead at 24 h” value in the assay on cockroaches [1] (setting [4]) was determined as 1. In addition, the “Proportion dead at 24 h” value with cockroaches [1] (setting [5]) is 0.025.

Consider `CC(C)CO` [isobutyl alcohol], for which the “# dead at 24 h” value in the assay on cockroaches [1] (Table 13, per replicate of 10-16 treated cockroaches, mg per insect in the label, listed as isobutyl alcohol (0.50 mg)) was 1; with cockroaches [1] (setting [4]), 1. Besides, the “Proportion dead at 24 h” value with cockroaches [1] (Table 13, per replicate, listed as isobutyl alcohol (0.50 mg)) is listed as 0.071; in the assay with cockroaches [1] (setting [5]) it was 0.026.
